Assay type in all cases: cell-based
For experiment [1], the system named is p-ERK. In words: Cell p-ERK assay (HTRF, Advance ERK phospho-T202/Y204 kit) in NCI-H441 cells. Conditions: NCI-H441, human non-small cell lung cancer cell strain, KRAS G12V mutation, 3 h compound incubation. Summed up:
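AsPC-1 (KRAS G12D) or NCI-H441 (KRAS G12V) cells seeded overnight, then treated 3 h at 37 °C with compound (0.1% DMSO) in RPMI-1640/10% FBS. Lysates assayed for ERK phospho-T202/Y204 by HTRF; inhibition vs DMSO and blank wells, IC50 from four-parameter fit.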
(Time-resolved FRET reads energy transfer from a long-lived donor to a nearby acceptor.)

The test system of experiment [2] is p-ERK. In words: Cell p-ERK assay (HTRF, Advance ERK phospho-T202/Y204 kit) in AsPC-1 cells. Conditions: ASPC1; AsPC-1, human pancreatic cancer cell strain, KRAS G12D mutation; 3 h compound incubation. The method, then:
AsPC-1 cells were purchased from ATCC, Cat. No. CRL-1682; NCI-H441 cells were purchased from ATCC, Cat. No. HTB-174; RPMI-1640 medium was purchased from Gibco, Cat. No. 11875-093; FBS was purchased from Gibco, Cat. No. 10099-141C; penicillin/streptomycin double-antibiotic solution (PS) was purchased from Gibco, Cat. No. 15140-122; trypsin (containing EDTA) was purchased from Gibco, Cat. No. 25200-072; DMSO was purchased from VWRAMRESCO, Cat. No. 0231-500ML; 96-well cell culture plates were purchased from Corning, Cat. No. 3599; white-bottomed, opaque 96-well plates were purchased from Cisbio, Cat. No. 66PL96025; Advance ERK phospho-T202/Y204 kit was purchased from Cisbio, Cat. No. 64AERPEH; cell counter was purchased from CHEMOMETEC, model: NC-200; microplate reader was purchased from PerkinElmer, model: EnVision.
AsPC-1, a human pancreatic cancer cell strain endogenously containing a KRAS^G12D mutation, was cultured in a complete medium containing RPMI-1640 + 10% FBS + 1% PS. NCI-H441, a human non-small cell lung cancer cell strain endogenously containing a KRAS^G12V mutation, was cultured in a complete medium containing RPMI-1640 + 10% FBS + 1% PS.
The cells were digested with trypsin (containing EDTA), collected in their corresponding complete media, and counted. The density of the cell suspensions was adjusted with their corresponding complete media, and AsPC-1 cells (10000 cells/well) or NCI-H441 cells (20000 cells/well) were seeded into a 96-well cell culture plate, with the volume of the medium in each well being 80 µL. The cell culture plate was incubated in an incubator at 37 °C with 5% CO2 overnight. A series of 3.16-fold gradient dilutions of a 1000× compound stock solution were prepared with DMSO, and then diluted 200-fold with the complete medium described above to give 5× compound stock solutions. On the day after cell seeding, 20 µL of the 5× compound stock solution was added to each cell culture well. As a result, the final concentration of the compound in the cell culture well became 1×, and the DMSO content in the well was 0.1%. In addition to the compound-treated wells described above, cell-containing DMSO control wells were also set. A complete medium containing 0.5% DMSO was added at 20 µL/well. After the mixture was well mixed, the culture plate was incubated in the incubator at 37 °C with 5% CO2 for another 3 h. The medium was then removed from the culture wells, and 50 µL of cell lysis buffer (from Advance ERK phospho-T202/Y204 kit) was added to each well. The mixture was well mixed, incubated for 30 min, and then transferred to a white-bottomed, opaque 96-well assay plate at 16 µL/well, and separately, 16 µL of cell lysis buffer was added to additional wells (serving as blank wells) in the assay plate. After the transfer was completed, 4 µL of p-ERK HTRF antibody mixture (from Advance ERK phospho-T202/Y204 kit) was added to each well of the assay plate, followed by a 4-hour incubation. The HTRF signal values (RLU) were then measured using a microplate reader, and the inhibition rate of the compound against p-ERK levels was calculated as follows: IR(%) = (RLUDMSO - RLUcompound)/(RLUDMSO - RLUblank) × 100%, where RLUDMSO is the average HTRF signal value from the DMSO control well samples, RLU is the average HTRF signal value from the blank well samples, and RLUcompound is the HTRF signal value from the compound-treated well samples. Using an XLfit software, the IR(%) values were plotted against the logarithm of the compound concentrations, and the dose-response curves were fitted using the four-parameter method to calculate the IC50 values.

The next experiment relates to NCI-H441 cells. In words: 3D cell proliferation assay (CellTiter Glo-3D) in NCI-H441 cells. Conditions: NCI-H441, human lung cancer cell strain, KRAS G12V mutation, 3D culture, 2% FBS, 5 days, read-out: H441 AP IC50. An excerpt:
MIA PaCa-2 cells were purchased from ATCC, Cat. No. CRL-1420; AsPC-1 cells were purchased from ATCC, Cat. No. CRL-1682; NCI-H441 cells were purchased from ATCC, Cat. No. HTB-174; NCI-H1975 cells were purchased from ATCC, Cat. No. CRL-5908; DMEM medium was purchased from Gibco, Cat. No. 11995-065; RPMI-1640 medium was purchased from Gibco, Cat. No. 11875-093; FBS was purchased from Gibco, Cat. No. 10099-141C; penicillin/streptomycin double-antibiotic solution (PS) was purchased from Gibco, Cat. No. 15140-122; Horse serum was purchased from Gibco, Cat. No. 16050130; trypsin (containing EDTA) was purchased from Gibco, Cat. No. 25200-072; DMSO was purchased from VWRAMRESCO, Cat. No. 0231-500ML; 384-well cell culture plates were purchased from Corning, Cat. No. 3830; white-bottomed, opaque 384-well assay plates were purchased from Corning, Cat. No. 3570; CellTiter Glo-3D kit was purchased from Promega, Cat. No. G9683; cell counter was purchased from CHEMOMETEC, model: NC-200; microplate reader was purchased from PerkinElmer, model: EnVision.
MIA PaCa-2, a human pancreatic cancer cell strain endogenously containing a KRAS^G12Cmutation, was cultured in a complete medium containing DMEM + 10% FBS + 2.5% Horse serum + 1% PS. AsPC-1, a human pancreatic cancer cell strain endogenously containing a KRAS^G12D mutation, was cultured in a complete medium containing RPMI-1640 + 10% FBS + 1% PS. NCI-H441 cells, a human lung cancer cell strain endogenously containing a KRAS^G12V mutation, were cultured in a complete medium containing RPMI-1640 + 10% FBS + 1% PS. NCI-H1975, a KRAS wild-type human lung cancer cell strain whose cell proliferation […], was cultured in a complete medium containing RPMI-1640 + 10% FBS + 1% PS.
The cells were digested with trypsin (containing EDTA), collected in their respective low-serum complete media containing 2% FBS (for MIA Paca-2 cell culture: DMEM + 2% FBS + 0.5% Horse serum + 1% PS), and counted. After the cell density was adjusted as required, MIA PaCa-2 cells (200 cells/well), AsPC-1 cells (800 cells/well), NCI-H441 cells (800 cells/well), or NCI-H1975 cells (400 cells/well) were seeded into a 384-well cell culture plate, with the volume of the medium in each well being 45 µL. The cell culture plate was incubated in an incubator at 37 °C with 5% CO2 overnight. A series of 3.16-fold gradient dilutions of a 1000× compound stock solution were prepared with DMSO, and then diluted 100-fold with the complete medium containing 2% FBS described above to give 10× compound stock solutions. On the day after cell seeding, 5 µL of the 10× compound stock solution was added to each cell culture well. As a result, the final concentration of the compound in the cell culture well became 1×, and the DMSO content in the well was 0.1%. In addition to the compound-treated wells described above, cell-containing DMSO control wells (with 5 µL of the complete medium containing 1% DMSO added to each well) and cell-free medium control wells (containing 50 µL of the complete medium with 2% FBS) were also set. The culture plate was incubated in an incubator at 37 °C with 5% CO2 for another 5 days, and then 30 µL of CellTiter-Glo working solution was added to each well. The mixture was well mixed, incubated for 30 min, left to stand at room temperature for 30 min, and then transferred to a white-bottomed, opaque 384-well assay plate at 40 µL/well. The chemiluminescence values (RLU) were measured using a microplate reader, and the cell proliferation inhibition rate for each well was calculated: IR(%) = (RLUDMSO - RLUcompound)/(RLUDMSO - RLUblank) × 100%, where RLUDMSO is the average RLU signal value from the DMSO control well samples, RLUblank is the average RLU signal value from the medium control well samples, and RLUcompound is the RLU signal value from the compound-treated well samples. […]
Background: Cellular ATP, detected with luciferase, serves as a proxy for viable cell number.

Like-named read-outs stand apart in the source and are kept apart here.

Broadly, the IC50 is the point on the concentration scale where inhibition reaches its midpoint.

Take `CCn1cc2c(c1-c1cc(C#CCN3CCC(C#N)CC3)cnc1[C@H](C)OC)CC(C)(C)COC(=O)[C@@H]1CCCN(N1)C(=O)[C@@H](NC(=O)[C@H]1[C@@H]3COC[C@@H]31)Cc1nc(co1)/C=C/2` (atropisomer, axis not shown; (Ra)) [Compound Z85, (1R,5S,6r)-N-((4^2Z,8^3S,2E,6S)-(Ra)-1^5-(5-(3-(4-cyanopiperidin-1-yl)prop-1-yn-1-yl)-2-((S)-1-methoxyethyl)pyridin-3-yl)-1^1-ethyl-12,12-dimethyl-7,9-dioxo-8^1,8^2,8^3,8^4,8^5,8^6-hexahydro-1^1H-10-oxa-4(4,2)-oxazola-8(1,3)-pyridazina-1(3,4)-pyrrolacyclotridecaphan-2-en-6-yl)-3-oxabicyclo[3.1.0]hexane-6-carboxamide]: the IC50 with p-ERK [1] (Homo sapiens, NCI-H441, 3 h) is 0.2 nM; with p-ERK [2], 0.04 nM.

In the case of `CCn1nc2c(c1-c1cc(N3CCN(C)CC3)cnc1[C@H](C)OC)CC(C)(C)COC(=O)[C@@H]1CCCN(N1)C(=O)[C@@H](NC(=O)[C@H]1[C@H](C)[C@@H]1C)Cc1nc(cs1)/C=C/2` (atropisomer, axis not shown) [Compound Z4], the IC50 came to 157 nM in the experiment with p-ERK [1] (Homo sapiens, NCI-H441, 3 h) and 367 nM in the experiment with p-ERK [2].

As to `CCn1nc2c(c1-c1cc(C#CCN3CCS(=O)(=O)CC3)cnc1[C@H](C)OC)CC(C)(C)COC(=O)[C@@H]1CCCN(N1)C(=O)[C@@H](NC(=O)[C@H](C(C)C)N(C)C(=O)COc1ccccc1)Cc1nc(cs1)/C=C/2` (atropisomer, axis not shown; (Ra)) [Compound Z57, (2S)-N-((4^2Z,8^3S,2E,6S)-(Ra)-1^5-(5-(3-(1,1-dioxidothiomorpholino)prop-1-yn-1-yl)-2-((S)-1-methoxyethyl)pyridin-3-yl)-1^1-ethyl-12,12-dimethyl-7,9-dioxo-8^1,8^2,8^1,8^4,8^1,8^6-hexahydro-1^1H-10-oxa-4(4,2)-thiazola-8(1,3)-pyridazina-1(3,4)-pyrazolocyclotridec-2-en-6-yl)-3-methyl-2-(N-methyl-2-phenoxyacetamido)butanamide], the half-maximal inhibitory concentration (IC50) with p-ERK [1] (Homo sapiens, NCI-H441, 3 h) amounted to 88 nM; with NCI-H441 cells (Homo sapiens, NCI-H441, 120 h) it was 245 nM.

Take `CCn1c(-c2cc(N3CCN(C)CC3)cnc2[C@H](C)OC)c2c3cc(ccc31)NC(=O)OC[C@H](NC(=O)[C@H]1[C@H](C)[C@@H]1C)C(=O)N1CCC[C@H](N1)C(=O)OCC(C)(C)C2` (single isomer, unassigned) [Compound Z2-1]: the 50% inhibitory concentration (IC50) with p-ERK [1] (Homo sapiens, NCI-H441, 3 h) amounted to 239 nM; with NCI-H441 cells (Homo sapiens, NCI-H441, 120 h), 374 nM.

In the case of `CCn1nc2c(c1-c1cc(C#CCN3CCS(=O)(=O)CC3)cnc1C(C)OC)CC(C)(C)COC(=O)C1CCCN(N1)C(=O)C(NC(=O)C(C(C)C)N(C)C(=O)Cn1ccc3ccccc31)Cc1nc(cs1)C=C2` (single isomer, unassigned) [Compound Z54-1], the IC50 worked out at 150 nM in the experiment on p-ERK [1] (Homo sapiens, NCI-H441, 3 h) and 240 nM in the experiment with NCI-H441 cells (Homo sapiens, NCI-H441, 120 h).

For the compound “(2R)-N-((4^2Z,8^3S,2E,6S)-(Ra)-1^5-(5-(3-(1,1-dioxothiomorpholino)prop-1-yn-1-yl)-2-((S)-1-methoxyethyl)pyridin-3-yl)-1^1-ethyl-12,12-dimethyl-7,9-dioxo-8^1,8^2,8^3,8^4,8^5,8^6-hexahydro-1^1H-10-oxo-4(4,2)-thiazola-8(1,3)-pyridazina-1(3,4)-pyrrolacyclotridecaphan-2-en-6-yl)-3-methyl-2-(N-methyl-2-phenylacetamido)butanamide [Compound Z47-2]”, the IC50 is 17.3 nM with p-ERK [1] and 37.6 nM in the experiment on NCI-H441 cells.

Values taken from patent EP4772514A1, “MACROCYCLIC COMPOUNDS, PREPARATION METHOD THEREFOR, AND USE THEREOF” (Genfleet Therapeutics (Shanghai) Inc., priority 2023, dated 2025).
